Assays:
[1] = test system: rat plasma protein; test: Rat plasma protein binding by equilibrium dialysis; assay type: in vitro ADME; settings: for Rat Plasma, Unbound %: equilibrium dialysis; for Fold increase vs Comparator (rat plasma unbound): ratio of unbound % sulfoximine / comparator sulfonamide
Text: (§1) Table 3 presents the human and rat plasma protein binding data (% unbound) for the compounds of Table 2.
(§2) Comparator compounds A, B, C have been previously reported as inhibitors of Na, 1.8 in WO2020/092667. Comparator D, not previously reported, is offered as an additional sulfonamido example.

[2] = test system: human plasma protein; test: Human plasma protein binding by equilibrium dialysis; assay type: in vitro ADME; settings: for Human Plasma, Unbound %: equilibrium dialysis; for Fold increase vs Comparatror (human plasma unbound): ratio of unbound % sulfoximine / comparator sulfonamide
Text: as §1, §2

[3] = biological target: T1, human Nav1.8 (Homo sapiens, UniProt Q9Y5Y9); test: SyncroPatch384PE assay (automated patch clamp); assay type: cell-based; settings: human Nav1.8/b3 CHO cells
[4] = biological target: T1, human Nav1.8; test: Sophion Qpatch II assay (automated patch clamp); assay type: cell-based; settings: resting state block (TP1 measurement), human Nav1.8 HEK293 cells, read-out: P1 IC50
Experimental: Compounds were tested on recombinant human Nav1.8/01 stably transfected HEK293 (Eurofins, CYL3025, St. Charles, MO) cells using the Qpatch II system (Sophion Bioscience A/S, Ballerup—Denmark), an automated patch clamp device. Cells were cultured at 37° C./5% CO2 in DMEM/F-12 supplemented with 10% fetal bovine serum, lx Non-Essential Amino Acids, and selection antibiotics (0.625 μg/mL Puromycin, 400 μg/mL Geneticin, and 100 μg/mL Hygromycin). One or two days prior to recording, cells were moved to a lower temperature 30° C./5% CO2 incubator to increase surface expression of the channels. On the day of the recordings, cells in culture dishes were washed twice with Ca^2+—Mg^2+ free DPBS and treated with Detachin (Genlantis, San Diego) for 3 minutes and then resuspended in Serum Free Medium (EX-CELL® ACF CHO Medium for Cell Culture (Sigma-Aldrich) supplemented with 0.04 mg/mL soybean trypsin Inhibitor and 25 mM HEPES (all components supplied by Sigma-Aldrich, St. Louis, MO) and allowed to recover for a minimum of 20 minutes in the onboard Qstirrer. All experiments were performed at ambient temperature. Intracellular solution contained (mM): CsCl, 50; CsF, 90; MgCl2, 2; EGTA, 5; HEPES, 10; pH adjusted to 7.2 with CsOH. Extracellular solution contained (mM): NaCl, 137; KCl, 4; CaCl2), 3.8; MgCl2, 1; HEPES, 10; Glucose, 10; pH adjusted to 7.4 with NaOH. 500 nM tetrodotoxin (TTX) was added to the extracellular solution to block endogenous TTX-sensitive sodium currents.
Compounds were tested in an interleaved manner across two cohorts of wells to develop an aggregate 8-point concentration response curve. Final concentrations include 0.5% DMSO and 0.03% pluronic Acid. The concentration range spanned a range from 0.01-300 nM. Compounds were diluted 1:10 with extracellular solution within their respective cohort. (R)-2-(4-fluoro-2-methylphenoxy)-N-(3-(S-methylsulfonimidoyl)phenyl)-5-(trifluoromethyl)nicotinamide served as a positive control while DMSO (0.5% by volume) served as a vehicle control to ascertain assay performance.
Whole cell patch clamp recordings were conducted according to Sophion standard procedure for Qpatch II®. Cells were held at a holding potential of −120 mV. A depolarizing step to 10 mV for 30 ms was applied (TP1 measurement), followed by a hyperpolarization step to −100 mV for 20 ms. Due to instability observed at long depolarized potentials, there were no second TP2 measurements attempted. Inter-sweep interval was 15 sec. Following establishment of the whole-cell configuration in extracellular solution, cells were washed twice in extracellular solution containing 0.5% DMSO and 0.03% pluronic acid to stabilize the baseline current. Compounds were then applied by the Qpatch II system into each well in an ascending manner within cohort and the current was recorded for five minutes for each concentration. Percent of current remaining was determined by taking the average of the last 5 sweeps within each concentration and normalizing to the latest pre-compound saline period. The potency of the compounds was assessed on resting state block (TP1 measurement) only to obtain IC50 values. Wells whose initial sodium current magnitude were below 2 nA or whole cell resistance fell below 100 MQ were excluded from analysis.
Examples 220 to 224, Examples 237 to 257 and Example 259 are assayed using Sophion Qpatch II assay described above.

[5] = inactivated state block (P2 measurement), read-out: P2 IC50
[6] = resting state block (P1 measurement), read-out: P1 IC50

T1 sequence (Q9Y5Y9 whole entry): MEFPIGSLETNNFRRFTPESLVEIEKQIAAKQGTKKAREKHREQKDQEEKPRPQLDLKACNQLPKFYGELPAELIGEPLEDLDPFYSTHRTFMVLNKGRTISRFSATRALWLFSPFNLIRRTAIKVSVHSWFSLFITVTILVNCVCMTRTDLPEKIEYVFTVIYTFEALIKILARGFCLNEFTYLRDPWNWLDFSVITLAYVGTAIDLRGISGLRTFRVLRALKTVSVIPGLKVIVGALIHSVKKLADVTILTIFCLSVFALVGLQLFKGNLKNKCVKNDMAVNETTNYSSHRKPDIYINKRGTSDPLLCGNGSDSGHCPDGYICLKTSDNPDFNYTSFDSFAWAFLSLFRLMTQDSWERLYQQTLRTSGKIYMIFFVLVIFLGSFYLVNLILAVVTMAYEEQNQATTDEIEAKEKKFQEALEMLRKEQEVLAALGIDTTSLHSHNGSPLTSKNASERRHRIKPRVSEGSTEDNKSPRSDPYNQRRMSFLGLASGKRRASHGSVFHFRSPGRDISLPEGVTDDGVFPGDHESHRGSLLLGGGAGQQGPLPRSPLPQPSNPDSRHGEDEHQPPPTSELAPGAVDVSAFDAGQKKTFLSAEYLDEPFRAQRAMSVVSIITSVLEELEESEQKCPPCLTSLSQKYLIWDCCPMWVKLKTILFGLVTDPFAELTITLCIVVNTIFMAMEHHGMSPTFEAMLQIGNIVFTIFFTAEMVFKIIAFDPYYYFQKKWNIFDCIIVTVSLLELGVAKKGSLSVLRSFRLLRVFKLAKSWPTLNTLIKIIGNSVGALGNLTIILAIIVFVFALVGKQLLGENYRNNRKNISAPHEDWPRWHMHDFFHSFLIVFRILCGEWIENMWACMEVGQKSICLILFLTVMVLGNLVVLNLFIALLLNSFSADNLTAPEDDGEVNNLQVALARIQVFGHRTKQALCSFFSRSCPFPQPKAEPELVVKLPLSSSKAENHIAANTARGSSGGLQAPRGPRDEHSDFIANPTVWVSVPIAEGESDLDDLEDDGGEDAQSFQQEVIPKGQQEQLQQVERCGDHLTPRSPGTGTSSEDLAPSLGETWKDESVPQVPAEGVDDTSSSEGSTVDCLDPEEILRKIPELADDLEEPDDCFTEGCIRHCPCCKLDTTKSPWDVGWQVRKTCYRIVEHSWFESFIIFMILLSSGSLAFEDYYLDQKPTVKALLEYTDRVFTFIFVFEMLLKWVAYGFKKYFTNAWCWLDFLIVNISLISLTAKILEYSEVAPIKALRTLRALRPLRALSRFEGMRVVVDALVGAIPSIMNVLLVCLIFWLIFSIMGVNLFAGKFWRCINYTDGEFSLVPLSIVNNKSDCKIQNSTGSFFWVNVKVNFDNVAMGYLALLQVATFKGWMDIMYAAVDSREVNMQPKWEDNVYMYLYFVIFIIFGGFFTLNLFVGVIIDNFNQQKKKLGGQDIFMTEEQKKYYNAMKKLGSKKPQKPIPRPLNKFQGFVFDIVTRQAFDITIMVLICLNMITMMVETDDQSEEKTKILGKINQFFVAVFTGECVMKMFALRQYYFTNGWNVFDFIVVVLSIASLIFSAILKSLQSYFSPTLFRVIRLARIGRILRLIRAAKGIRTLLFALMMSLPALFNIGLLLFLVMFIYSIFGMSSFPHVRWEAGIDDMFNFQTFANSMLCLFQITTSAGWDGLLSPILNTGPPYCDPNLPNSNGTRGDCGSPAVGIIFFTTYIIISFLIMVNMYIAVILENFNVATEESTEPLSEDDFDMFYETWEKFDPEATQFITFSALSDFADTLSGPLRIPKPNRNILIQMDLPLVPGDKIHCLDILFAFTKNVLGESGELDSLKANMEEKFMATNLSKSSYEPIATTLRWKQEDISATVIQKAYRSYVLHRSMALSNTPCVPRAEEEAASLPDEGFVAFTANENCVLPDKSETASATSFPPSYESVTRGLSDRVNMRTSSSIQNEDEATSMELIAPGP

SMILES | Rat Plasma, Unbound % [1] | Human Plasma, Unbound % [2] | IC50 [4] | further results
Cc1c(C(F)(F)F)cnc(N2CCCC(F)(F)CC2)c1C(=O)N[C@H]1C[C@H](C(N)=O)C1 [Example 257, N-((trans)-3-carbamoylcyclobutyl)-2-(4,4-difluoroazepan-1-yl)-4-methyl-5-(trifluoromethyl)nicotinamide] | – | – | 0.05 to 0.1 µM | –
C[S@](=N)(=O)c1cccc(NC(=O)c2cc(Cl)c(C(F)(F)F)cc2N2CCC(C(F)(F)F)CC2)c1 [Example 251, (S)-5-chloro-N-(3-(S-methylsulfonimidoyl)phenyl)-4-(trifluoromethyl)-2-(4-(trifluoromethyl)piperidin-1-yl)benzamide] | – | – | 0.05 to 0.1 µM | –
Cc1c(C(F)(F)F)cnc(N2CCCC(F)(F)CC2)c1C(=O)N[C@H]1C[C@@H](C(N)=O)C1 [Example 259, N-((cis)-3-carbamoylcyclobutyl)-2-(4,4-difluoroazepan-1-yl)-4-methyl-5-(trifluoromethyl)nicotinamide] | – | – | 0.05 to 0.1 µM | –
Cc1nc(N2CCCC(F)(F)CC2)c(C(=O)Nc2ccnc(S(N)(=O)=O)c2)cc1Cl [Compound C, reference compound] | 1.62% | 0.53% | – | –
Cc1c(C(=O)Nc2ccnc([S@](C)(=N)=O)c2)c(N2CCCC(F)(F)CC2)cc(C2CC2)c1C(F)(F)F [Example 250, (R)-4-cyclopropyl-6-(4,4-difluoroazepan-1-yl)-2-methyl-N-(2-(S-methylsulfonimidoyl)pyridin-4-yl)-3-(trifluoromethyl)benzamide] | – | – | ≤ 0.005 µM | –
Cc1c(C(F)(F)F)cnc(N2CCCC(F)(F)CC2)c1C(=O)N[C@H]1C[C@H](C(=O)O)C1 [Example 256, (trans)-3-(2-(4,4-difluoroazepan-1-yl)-4-methyl-5-(trifluoromethyl)nicotinamido)cyclobutane-1-carboxylic acid] | – | – | 0.05 to 0.1 µM | –
Cc1c(C(=O)Nc2ccnc([S@@](C)(=N)=O)c2)c(N2CCCC(F)(F)CC2)nc(C2CC2)c1C(F)(F)F [Example 221, (S)-6-cyclopropyl-2-(4,4-difluoroazepan-1-yl)-4-methyl-N-(2-(S-methylsulfonimidoyl)pyridin-4-yl)-5-(trifluoromethyl)nicotinamide] | – | – | 0.005 to 0.05 µM | –

More lines, main results first:

Rat Plasma, Unbound % [1] | Human Plasma, Unbound % [2] | IC50 [4] | SMILES | further results
15.8% | 17.4% | – | NS(=O)(=O)c1cccc(NC(=O)c2cc(C(F)(F)F)nnc2N2CCCC(F)(F)CC2)c1 [Compound B, reference compound] | –
3.55% | 1.8% | – | Cc1nc(N2CCCC(F)(F)CC2)c(C(=O)Nc2ccnc(S(C)(=N)=O)c2)cc1C(F)(F)F (stereo not drawn) [Example 101, 2-(4,4-difluoroazepan-1-yl)-6-methyl-N-(2-(S-methylsulfonimidoyl)pyridin-4-yl)-5-(trifluoromethyl)nicotinamide] | IC50 [3, 5]: ≤ 0.005 µM; IC50 [3, 6]: ≤ 0.005 µM; Fold increase vs Comparator (rat plasma unbound) [1]: 6.8×; Fold increase vs Comparatror (human plasma unbound) [2]: 7.5×
0.52% | 0.24% | – | Cc1nc(N2CCCC(F)(F)CC2)c(C(=O)Nc2ccnc(S(N)(=O)=O)c2)cc1C(F)(F)F [Compound A, reference compound] | –
1.9% | 0.9% | – | Cc1nc(N2CCCC(F)(F)CC2)c(C(=O)Nc2cccc([S@](C)(=N)=O)c2)cc1C(F)(F)F [Example 4, (R)-2-(4,4-difluoroazepan-1-yl)-6-methyl-N-(3-(S-methylsulfonimidoyl)phenyl)-5-(trifluoromethyl)nicotinamide] | IC50 [3, 5]: ≤ 0.005 µM; IC50 [3, 6]: ≤ 0.005 µM; Fold increase vs Comparator (rat plasma unbound) [1]: 6.1×; Fold increase vs Comparatror (human plasma unbound) [2]: 2.9×
37.8% | – | – | CS(=N)(=O)c1cccc(NC(=O)c2cc(C(F)(F)F)nnc2N2CCCC(F)(F)CC2)c1 (stereo not drawn) [Compound E] | Fold increase vs Comparator (rat plasma unbound) [1]: 2.4×
3.0% | 1.7% | – | Cc1nc(N2CCCC(F)(F)CC2)c(C(=O)Nc2cccc(S(C)(=N)=O)c2)cc1Cl (stereo in doubt) [Example 17, (S)-5-Chloro-2-(4,4-difluoroazepan-1-yl)-6-methyl-N-(3-(S-methylsulfonimidoyl)phenyl)nicotinamide] | IC50 [3, 6]: ≤ 0.005 µM; Fold increase vs Comparator (rat plasma unbound) [1]: 1.9×; Fold increase vs Comparatror (human plasma unbound) [2]: 3.2×
0.31% | 0.31% | – | Cc1nc(N2CCCC(F)(F)CC2)c(C(=O)Nc2cccc(S(N)(=O)=O)c2)cc1C(F)(F)F [Compound D, reference compound] | –

— US20250154109A1, “SODIUM CHANNEL BLOCKING COMPOUNDS, DERIVATIVES THEREOF, AND METHODS OF THEIR USE” (LATIGO BIOTHERAPEUTICS, INC, priority 2022, published 2025)
